# Results taken from patent US4599362A, “2-aryl-ethyl ether derivatives and insecticidal and acaricidal agents containing said derivatives” (priority 1980, dated 1986).
# Like-named read-outs stand apart in the source and are kept apart here.
# How the values were obtained:
# [1] = test system: third-instar larvae of diamond back moth; assay: Test 4: Effect on Diamond Back Moth; format: in vivo; conditions: Plutella xylostella, 24 hours
# In short: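 Emulsifiable concentrate diluted in water to 100 or 20 ppm and sprayed at 3 ml per cup onto cabbage leaves holding 10 third-instar diamondback moth larvae. Dead and living larvae counted after 24 h; mortality averaged over three cups.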
# German cockroach = assay: Test 7: Effect on German Cockroach; format: in vivo; conditions: Blattella germanica, male adults, 24 hours, agonized and killed; for mortality at 10 mg/m2: 10 mg/m^2; for mortality at 50 mg/m2: 50 mg/m^2
# In short: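 Dish bottoms were treated with 50 or 10 mg/m^2 of test compound and air-dried, then 10 male adult cockroaches were released per dish and held at 25° C. Agonized and killed adults were counted after 24 hours, averaged over two dishes.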
# two-spotted spider mite = assay: Test 6: Effect on Two-Spotted Spider mite adults; format: in vivo; conditions: Tetranychus urticae; 500 ppm; adults; 24 hours; read-out: Mortality (%)
# In short: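 Kidney bean leaf discs (15 mm) on wet cotton, each holding 10 adult mites, sprayed with 3 ml of a 500 ppm dilution of an emulsifiable concentrate. Kept at 25° C; dead adults counted after 24 hours to give mortality, averaged over three discs.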
# Test 8: Fish Toxicity = format: in vivo; conditions: carp, water, carps, concentration at which 1/2 of the test fishes were killed, read-out: Fish Toxicity, TLm48
# Description: A water tank having a width of 60 cm, a length of 30 cm and a height of 40 cm was filled with water, and 10 yearling carps having a body length of about 5 cm were set free in the tank and adapted to the environment in the tank. A test compound was applied so that the concentration in water was 10, 1, or 0.1 ppm. After 48 hours, the numbers of killed and living carps were counted and the influences on the fishes were examined.
# green peach aphids = assay: Test 5: Effect on green peach Aphid; format: in vivo; conditions: Myzus persicae, 24 hours, mortality class, read-out: Insecticidal Activity
# Description: To a mixture of 20 parts of the compound of the present invention and 20 parts of Sorpol SM-200 (registered trademark for the product supplied by Toho Chemical Industrial Co., Ltd.) was added 60 parts of xylol, and the mixture was sufficiently blended. The obtained emulsifiable concentrate was diluted at a predetermined concentration with distilled water, and the obtained dilution was used.
# Seedlings (having 3 to 4 leaves) of an eggplant grown on a pot were inoculated with green peach aphids and the insects were allowed to grow. The number of the insects was counted. A chemical dilution having a concentration of 100 ppm, prepared in the same manner as described in Test 1, was applied with a spray gun at a rate of 10 ml per pot. Then, the pot was placed in a glass green house. After 24 hours, the number of living insects was counted and the mortality was calculated.
# The test was made on three pots, and the average value was calculated. In Table 6, mark "A" indicates a mortality higher than 95%, mark "B" indicates a mortality of 80 to 95%, mark "C" indicates a mortality of 50 to 80%, and mark "D" indicates a mortality lower than 50%.
# [2] = Test 9: Toxicity Test (acute oral, mice); conditions: mouse, in vivo, po
# In short: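 Compound dissolved or suspended in corn oil was given orally to male mice of 19–23 g body weight, at 0.2 ml per 10 g. Deaths and effects were recorded after 7 days.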
# [3] = test system: Second-instar and fifth-instar larvae of tobacco cutworm; assay: Test 2: Tobacco Cutworm Larva Dipping Test; format: in vivo
# [4] = test system: resistant green rice leafhopper (collected at Nakagawara); assay: Test 3: Effect on Resistant Green Rice Leafhopper; format: in vivo, Nephotettix cincticeps Uhler; conditions: Nephotettix cincticeps, 24 h, read-out: Mortality (%) Green Rice Leafhopper Collected at Nakagawara
# In short: (§1)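 Rice seedlings (2–3 leaves) sprayed with emulsifiable-concentrate dilutions at 100 or 20 ppm, 3 ml per pot, air-dried, then infested with 10 female adults per pot. Mortality counted after 24 h and averaged over three pots.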
# [5] = test system: sensitive green rice leafhopper (collected at Chigasaki); assay: Test 3: Effect on Sensitive Green Rice Leafhopper; format: in vivo; conditions: Nephotettix cincticeps, female adults, 24 hours
# In short: as §1
# [6] = 20 ppm, second-instar larvae, 24 hours, read-out: Mortality (%) Second-Instar Larvae
# [7] = 100 ppm, second-instar larvae, 24 hours, read-out: Mortality (%) Second-Instar Larvae
# [8] = topical, 24 h, read-out: Mortality (%) Fifth-Instar Larvae
SMILES,mortality at 20 ppm [1],mortality at 100 ppm [1],mortality at 10 mg/m2 (German cockroach),mortality at 50 mg/m2 (German cockroach),mortality at 500 ppm (two-spotted spider mite),LC50 at 48 h (Test 8: Fish Toxicity),mortality at 100 ppm (green peach aphids),LD50 at 168 h [2],"mortality at 20 ppm [3, 6]","mortality at 100 ppm [3, 7]","mortality at 20 ppm [3, 8]","mortality at 100 ppm [3, 8]",mortality at 20 ppm [4],mortality at 100 ppm [4],mortality at 20 ppm [5],mortality at 100 ppm [5]
"CC(C)(COCc1ccc(F)c(Oc2ccc(F)cc2)c1)c1ccc(Cl)cc1 [Compound 1, 3-(4-Fluorophenoxy)-4-fluorobenzyl 2-(4-chlorophenyl)-2-methylpropyl ether]",100%,100%,100%,100%,100%,~1 µg/mL,> 95%,> 500 mg/kg,80%,90%,70%,80%,–,–,–,–
"CC(C)(COCc1ccc(F)c(Oc2ccccc2)c1)c1ccccc1 [Compound 2, 3-Phenoxy-4-fluorobenzyl 2-phenyl-2-methylpropyl ether]",100%,100%,100%,100%,–,> 1 µg/mL,> 95%,> 500 mg/kg,100%,100%,100%,100%,100%,100%,100%,100%
"CC(C)(COCc1ccc(Cl)c(Oc2ccccc2)c1)c1ccc(Cl)cc1 [Compound 3, 3-Phenoxy-4-chlorobenzyl 2-(4-chlorophenyl)-2-methylpropyl ether]",100%,100%,90%,100%,90%,> 10 µg/mL,> 95%,> 500 mg/kg,–,–,–,–,90%,100%,80%,100%
"CC(C)(CSCc1ccc(F)c(Oc2ccccc2)c1)c1ccc(Cl)cc1 [Compound 4, 3-Phenoxy-4-fluorobenzyl 2-(4-chlorophenyl)-2-methylpropyl thioether]",90%,100%,90%,100%,90%,> 0.5 µg/mL,> 95%,> 500 mg/kg,–,–,–,–,–,–,–,–
"CCC(COCc1ccc(F)c(Oc2ccccc2)c1)c1ccc(Cl)cc1 (stereo not drawn) [Compound 6, 3-Phenoxy-4-fluorobenzyl 2-(4-chlorophenyl)-butyl ether]",100%,100%,100%,100%,100%,> 1 µg/mL,> 95%,> 500 mg/kg,90%,100%,85%,100%,100%,100%,100%,100%
"CC(C)(COCc1ccc(F)c(Oc2ccccc2)c1)c1ccc(Cl)cc1 [Compound 10, 3-phenoxy-4-fluorobenzyl 2-(4-chlorophenyl)-2-methylpropyl ether]",100%,100%,100%,100%,100%,> 0.1 µg/mL,> 95%,> 500 mg/kg,100%,100%,100%,100%,100%,100%,100%,100%
"CC(C)(COCc1ccc(F)c(Oc2ccc(Br)cc2)c1)c1ccc(Cl)cc1 [Compound 15, 3-(4-bromophenoxy)-4-fluorobenzyl 2-(4-chlorophenyl)-2-methylpropyl ether]",100%,100%,100%,100%,100%,> 10 µg/mL,> 95%,> 500 mg/kg,100%,100%,100%,100%,–,–,–,–
"CC(C)(COCc1ccc(F)c(Oc2ccccc2)c1)c1ccc(Br)cc1 [Compound 18, 3-Phenoxy-4-fluorobenzyl 2-(4-bromophenyl)-2-methylpropyl ether]",100%,100%,100%,100%,100%,> 0.1 µg/mL,> 95%,> 500 mg/kg,–,–,–,–,–,–,–,–
"CCCCCOc1ccc(C(C)(C)COCc2ccc(F)c(Oc3ccccc3)c2)cc1 [Compound 38, 3-Phenoxy-4-fluorobenzyl 2-(4-n-pentyloxyphenyl)-2-methylpropyl ether]",100%,100%,100%,100%,100%,> 1 µg/mL,> 95%,–,–,–,–,–,–,–,–,–
"CC(C)(COCc1ccc(F)c(Oc2ccccc2)c1)c1cc(Cl)cc(Cl)c1 [Compound 48, 3-Phenoxy-4-fluorobenzyl 2-(3,5-dichlorophenyl)-2-methylpropyl ether]",–,–,–,–,–,> 1 µg/mL,80 to 95%,> 500 mg/kg,–,–,–,–,100%,100%,100%,100%
"CC(C)(COCc1ccc(F)c(Oc2ccccc2)c1)c1ccc(Oc2ccccc2)cc1 [Compound 52, 3-Phenoxy-4-fluorobenzyl 2-(4-phenoxyphenyl)-2-methylpropyl ether]",–,–,100%,100%,100%,> 1 µg/mL,> 95%,–,–,–,–,–,–,–,–,–
"COCSc1ccc(C(C)(C)COCc2ccc(F)c(Oc3ccccc3)c2)cc1 [Compound 60, 3-Phenoxy-4-fluorobenzyl 2-(4-methoxymethylthiophenyl)-2-methylpropyl ether]",95%,100%,100%,100%,–,> 1 µg/mL,> 95%,–,–,–,–,–,100%,100%,90%,100%
"CC(C)(COCc1ccc(F)c(Oc2ccccc2)c1)c1ccc(-c2ccccc2)cc1 [Compound 61, 3-Phenoxy-4-fluorobenzyl 2-(4-biphenyl)-2-methylpropyl ether]",–,–,85%,100%,100%,> 1 µg/mL,> 95%,> 500 mg/kg,–,–,–,–,100%,100%,100%,100%
"CCOc1ccc(C(C)(C)COCc2ccc(F)c(Oc3ccc(Br)cc3)c2)cc1 [Compound 68, 3-(4-Bromophenoxy)-4-fluorobenzyl 2-(4-ethoxyphenyl)-2-methylpropyl ether]",100%,100%,–,–,–,> 1 µg/mL,> 95%,> 500 mg/kg,–,–,–,–,100%,100%,100%,100%
